For this test, the target named is T1, glucan synthase (GS) (Candida albicans, UniProt O13428).
T1 construct: Extraction of GS activity from membranes was performed at a protein concentration of 5 mg/mL in extraction buffer; endogenous in cells; host or cells: Candida albicans MY1055 (membrane fraction, detergent extract, product entrapment)
Briefly: Glucan synthase inhibition (polymerization assay, 96-well, 3H-UDPG incorporation). The test is classed as biochemical. As for the experimental part:
The in vitro evaluation of glucan synthase inhibitory activity of compounds was measured in a polymerization assay in 96-well format. Each well contained 100 µL of ^3H-UDPG at 0.5 mM (6000 to 8000 dpm/nmol), 50 mM HEPES pH 7.5 (Sigma), 10% w/v glycerol (Sigma), 1.5 mg/mL bovine serum albumin (Sigma A 9647. Lot 44H0190), 25 mM KF (Fisher), 1 mM EDTA (Gibco ULTRAPURE), 25 µM GTP-γ-S, enzyme sufficient to give 3 to 6 nmoles incorporation during the 60 min incubation at 22°C, and test compound added from wells in 3-fold serial dilutions in 100% DMSO (1 µL/well). The reaction was stopped by the addition of 100 µL of 20% trichloroacetic acid. Plates were chilled for a minimum of 10 min, and precipitated glucan collected by filtration on GF/C plates (Packard UNIFILTER®-96), washed with 5 cycles of water (about 1 mL/well each cycle) using a Packard FILTERMATE HARVESTER. 40 µL/well scintillation fluid (Packard ULTIMA GOLD TM-XR) was added and the sealed plates counted in a WALLAC BETA counter in top-counting mode at an efficiency of approximately 40%.
Stock solutions were stored at 10 mg/mL in DMSO at -20°C. For each new enzyme preparation, the initial titration performed started at 1 mg/mL, which was prepared by making a 10-fold dilution in DMSO (5 µL to 50 µL). 40 µL of this stock was placed in column 12 of a round-bottomed 96-well microtiter plate. 40 µL DMSO was added to columns 1 to 11 in the same row and ten 3-fold serial dilutions performed, by transferring 20 µL from column 12 to column 11 etc., with 4 mixings before each transfer. No test compound was transferred to from column 2 to column 1. Duplicate aliquots of 1 µL of all 12 dilutions were then transferred to the side walls of a 96-well Bioblock 1.1 mL plate (Fisher brand) to create two rows.
Graphs of the primary data were created in PRISM software (the average of two determinations) using PRISM's curve fitting program (sigmoidal dose response non-linear regression). The amount of compound required to inhibit glucan synthase activity by 50% in this assay (IC50 - ng/mL) was calculated.
Routine analysis was performed with glucan synthase (GS) prepared from Candida albicans MY1055 by the following procedure: MY1055 was grown in 10 liters YPD medium (10 g yeast extract, 20 g tryptone, 20 g glucose per liter) with vigorous shaking at 30°C, to early stationary phase. Cells were harvested by centrifugation, the pellet was washed and frozen at -70°C until breakage. Thawed pellets were shaken with an equal volume of breakage buffer (50 mM HEPES pH 7.4, 10% glycerol, 1 mM EDTA, 1 mM PMSF, 1mM DTT) and 4 times their weight of 0.5 mm acid washed glass beads for 2 hours at 4°C. Extent of breakage was assessed visually at 40x magnification. After low speed centrifugation to remove cell debris, the supernatant was centrifuged at 100,000 x g for 60 min. to separate membranes plus ribosomes from cytoplasmic components. Membranes were further washed two additional times with breakage buffer using the same centrifugation conditions and finally suspended in breakage buffer at 25 to 30 mg/mL protein (Biorad) for storage at -70°C. Extraction of GS activity from membranes was performed at a protein concentration of 5 mg/mL in extraction buffer (50mM NaPO4 pH 7.5, 0.1 M KCl, 0.1M Na citrate, 20% glycerol, 5 µM GTP-γ-S, 1mM DTT, 1 mM PMSF, 3 µg/mL pepstatin) plus 0.25% W1 by gentle mixing at 4°C for 60 min, followed by centrifugation at 100,000 x g for 60 min. After centrifugation, clear supernatant was removed from a pellet consisting of a hard layer usually with small amounts of gelatinous unextracted membranes above it.
Trapping was initiated immediately by 5-fold dilution in trapping buffer (50 mM HEPES pH 7.5, 10 mM KF, 1 mM EDTA, 2 mg/mL BSA) plus 2.5 mM UDPG and 10µM GTP-γ-S. After incubation at 25°C for 60 to 90 minutes, glucan was harvested by low speed centrifugation (3,000 x g, 10 min). […]

Setting [1] is: glucan synthase prepared from Candida albicans MY1055, 60 min incubation at 22°C, read-out: Candida Albicans GS IC50 (ng/mL) (converted).

Structures are written as SMILES. Like-named read-outs stand apart in the source and are kept apart here.

These results are taken from patent EP2326172B1, “ANTIFUNGAL AGENTS” (Scynexis, Inc., priority 2008, dated 2010).

T1 sequence (O13428 1-1897): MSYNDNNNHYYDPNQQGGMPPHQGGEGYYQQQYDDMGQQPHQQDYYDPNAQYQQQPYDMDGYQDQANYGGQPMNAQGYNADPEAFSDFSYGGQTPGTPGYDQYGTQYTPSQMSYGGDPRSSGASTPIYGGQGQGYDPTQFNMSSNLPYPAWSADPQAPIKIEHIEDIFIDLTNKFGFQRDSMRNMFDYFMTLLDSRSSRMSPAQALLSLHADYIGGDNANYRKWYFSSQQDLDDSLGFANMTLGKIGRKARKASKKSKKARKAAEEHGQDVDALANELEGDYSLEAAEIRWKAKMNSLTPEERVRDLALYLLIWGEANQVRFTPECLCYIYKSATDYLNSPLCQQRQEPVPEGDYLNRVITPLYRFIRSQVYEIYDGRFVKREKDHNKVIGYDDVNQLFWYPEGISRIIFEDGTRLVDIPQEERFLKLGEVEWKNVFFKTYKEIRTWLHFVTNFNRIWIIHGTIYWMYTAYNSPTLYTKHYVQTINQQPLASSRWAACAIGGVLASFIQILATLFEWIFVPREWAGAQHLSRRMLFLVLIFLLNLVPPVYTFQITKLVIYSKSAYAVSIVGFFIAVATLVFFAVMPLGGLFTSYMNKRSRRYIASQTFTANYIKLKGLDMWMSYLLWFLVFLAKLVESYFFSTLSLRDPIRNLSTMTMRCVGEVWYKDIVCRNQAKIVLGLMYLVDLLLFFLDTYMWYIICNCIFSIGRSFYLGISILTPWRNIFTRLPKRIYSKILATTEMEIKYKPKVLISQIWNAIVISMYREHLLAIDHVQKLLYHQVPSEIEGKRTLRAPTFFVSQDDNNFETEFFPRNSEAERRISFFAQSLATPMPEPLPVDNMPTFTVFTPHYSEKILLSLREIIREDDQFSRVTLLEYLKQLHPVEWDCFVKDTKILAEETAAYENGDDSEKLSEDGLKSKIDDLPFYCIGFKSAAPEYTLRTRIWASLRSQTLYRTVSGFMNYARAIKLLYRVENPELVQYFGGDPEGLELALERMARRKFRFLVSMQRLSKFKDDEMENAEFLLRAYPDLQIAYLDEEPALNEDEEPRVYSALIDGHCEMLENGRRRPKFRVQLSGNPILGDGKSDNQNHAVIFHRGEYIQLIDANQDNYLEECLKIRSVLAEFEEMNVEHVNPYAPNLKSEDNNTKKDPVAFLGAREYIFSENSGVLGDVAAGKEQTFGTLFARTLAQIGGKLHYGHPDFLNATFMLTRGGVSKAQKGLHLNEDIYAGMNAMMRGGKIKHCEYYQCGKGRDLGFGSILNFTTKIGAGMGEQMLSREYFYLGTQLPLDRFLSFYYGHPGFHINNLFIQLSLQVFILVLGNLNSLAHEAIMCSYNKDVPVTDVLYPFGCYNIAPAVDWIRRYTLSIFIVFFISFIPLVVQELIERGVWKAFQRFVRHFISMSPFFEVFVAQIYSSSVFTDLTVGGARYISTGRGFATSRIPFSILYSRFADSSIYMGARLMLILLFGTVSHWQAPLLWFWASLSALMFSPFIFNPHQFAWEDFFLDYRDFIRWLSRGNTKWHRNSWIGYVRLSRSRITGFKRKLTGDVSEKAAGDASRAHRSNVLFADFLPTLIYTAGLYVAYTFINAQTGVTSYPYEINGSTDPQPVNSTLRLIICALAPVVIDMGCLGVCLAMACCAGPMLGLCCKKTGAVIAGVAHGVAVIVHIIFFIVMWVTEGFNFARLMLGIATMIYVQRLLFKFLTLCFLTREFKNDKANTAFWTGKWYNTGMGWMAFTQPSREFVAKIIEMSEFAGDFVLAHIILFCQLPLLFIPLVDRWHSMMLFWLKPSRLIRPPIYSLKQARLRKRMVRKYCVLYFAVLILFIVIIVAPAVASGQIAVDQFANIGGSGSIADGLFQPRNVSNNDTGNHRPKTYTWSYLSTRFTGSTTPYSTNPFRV
T1 sequence (O42825 1-195 partner limits assumed): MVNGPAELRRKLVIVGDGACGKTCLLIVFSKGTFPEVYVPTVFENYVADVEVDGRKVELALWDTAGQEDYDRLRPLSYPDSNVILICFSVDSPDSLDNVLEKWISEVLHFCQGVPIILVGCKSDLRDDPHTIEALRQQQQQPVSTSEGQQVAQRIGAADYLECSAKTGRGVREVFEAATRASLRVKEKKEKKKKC

In the case of `CNC(=O)c1ncnn1[C@@H]1C[C@@]23COC[C@](C)([C@@H]2CC[C@H]2C3=CC(=O)[C@@]3(C)[C@H](C(=O)O)[C@@](C)([C@H](C)C(C)C)CC[C@]23C)[C@H]1OC[C@](C)(NC)C(C)C` [Example 40, (1S,4aR,6aS,7R,8R,10aR,10bR,12aR,14R,15R)-15-[[(2R)-2,3-dimethyl-2-(methylamino)butyl]oxy]-8-[(1R)-1,2-dimethylpropyl]-14-[5-[(methylamino)carbonyl]-1H-1,2,4-triazol-1-yl]-1,6,6a,7,8,9,10,10a,10b,11,12,12a-dodecahydro-1,6a,8,10a-tetramethyl-6-oxo-4H-1,4a-propano-2H-phenanthro[1,2-c]pyran-7-carboxylic acid], the IC50 under setting [1] was 24.9 nM.

With `CCN[C@@](C)(CO[C@H]1[C@H](n2ncnc2C(N)=O)C[C@@]23COC[C@]1(C)[C@@H]2CC[C@H]1C3=CC[C@@]2(C)[C@H](C(=O)O)[C@@](C)([C@H](C)C(C)C)CC[C@]12C)C(C)C` [Example 43, (1S,4aR,6aS,7R,8R,10aR,10bR,12aR,14R,15R)-14-[5-(aminocarbonyl)-1H-1,2,4-triazol-1-yl]-8-[(1R)-1,2-dimethylpropyl]-15-[[(2R)-2-(ethylamino)-2,3-dimethylbutyl]oxy]-1,6,6a,7,8,9,10,10a,10b,11,12,12a-dodecahydro-1,6a,8,10a-tetramethyl-4H-1,4a-propano-2H-phenanthro[1,2-c]pyran-7-carboxylic acid], the IC50 under setting [1] was 15.5 nM.

For the compound `CNC1(CO[C@H]2[C@H](n3ncnc3C(N)=O)C[C@@]34COC[C@]2(C)[C@@H]3CC[C@H]2C4=CC[C@@]3(C)[C@H](C(=O)O)[C@@](C)([C@H](C)C(C)C)CC[C@]23C)CCOCC1` [Example 46, (1S,4aR,6aS,7R,8R,10aR,10bR,12aR,14R,15R)-14-[5-(aminocarbonyl)-1H-1,2,4-triazol-1-yl]-8-[(1R)-1,2-dimethylpropyl]-15-[[tetrahydro-4-(methylamino)-2H-pyran-4-yl]methoxy]-1,6,6a,7,8,9,10,10a,10b,11,12,12a-dodecahydro-1,6a,8,10a-tetramethyl-4H-1,4a-propano-2H-phenanthro[1,2-c]pyran-7-carboxylic acid], under setting [1], the IC50 is 8.45 nM.

For the compound `CC(C)[C@@H](C)[C@@]1(C)CC[C@]2(C)[C@H]3CC[C@@H]4[C@@]5(COC[C@@]4(C)[C@@H](OC[C@](C)(N)C(C)C)[C@H](n4ncnc4C(=O)N(C)C)C5)C3=CC[C@@]2(C)[C@@H]1C(=O)O` [Example 50, (1S,4aR,6aS,7R,8R,10aR,10bR,12aR,14R,15R)-15-[[(2R)-2-amino-2,3-dimethylbutyl]oxy]-14-[5-[(dimethylamino)carbonyl]-1H-1,2,4-triazol-1-yl]-8-[(1R)-1,2-dimethylpropyl]-1,6,6a,7,8,9,10,10a,10b,11,12,12a-dodecahydro-1,6a,8,10a-tetramethyl-4H-1,4a-propano-2H-phenanthro[1,2-c]pyran-7-carboxylic acid], under setting [1], the IC50 was 12.7 nM. For the compound `CCCN[C@@](C)(CO[C@H]1[C@H](n2ncnc2C(=O)NC)C[C@@]23COC[C@]1(C)[C@@H]2CC[C@H]1C3=CC[C@@]2(C)[C@H](C(=O)O)[C@@](C)([C@H](C)C(C)C)CC[C@]12C)C(C)C` [Example 53, (1S,4aR,6aS,7R,8R,10aR,10bR,12aR,14R,15R)-8-[(1R)-1,2-dimethylpropyl]-15-[[(2R)-2,3-dimethyl-2-(propylamino)butyl]oxy]-14-[5-[(methylamino)carbonyl]-1H-1,2,4-triazol-1-yl]-1,6,6a,7,8,9,10,10a,10b,11,12,12a-dodecahydro-1,6a,8,10a-tetramethyl-4H-1,4a-propano-2H-phenanthro[1,2-c]pyran-7-carboxylic acid], the IC50 under setting [1] was 42 nM.

As for `CC(C)NC(=O)c1ncnn1[C@@H]1C[C@@]23COC[C@](C)([C@@H]2CC[C@H]2C3=CC[C@@]3(C)[C@H](C(=O)O)[C@@](C)([C@H](C)C(C)C)CC[C@]23C)[C@H]1OC[C@](C)(N)C(C)(C)C` [Example 93, (1S,4aR,6aS,7R,8R,10aR,10bR,12aR,14R,15R)-15-[[(2R)-2-amino-2,3,3-trimethylbutyl]oxy]-8-[(1R)-1,2-dimethylpropyl]-14-[5-[[(1-methylethyl)amino]carbonyl]-1H-1,2,4-triazol-1-yl]-1,6,6a,7,8,9,10,10a,10b,11,12,12a-dodecahydro-1,6a,8,10a-tetramethyl-4H-1,4a-propano-2H-phenanthro[1,2-c]pyran-7-carboxylic acid], under setting [1], the IC50 is 20.3 nM. As to `CCC(N)(CC)CO[C@H]1[C@H](n2ncnc2C(=O)NC)C[C@@]23COC[C@]1(C)[C@@H]2CC[C@H]1C3=CC[C@@]2(C)[C@H](C(=O)O)[C@@](C)([C@H](C)C(C)C)CC[C@]12C` [Example 101, (1S,4aR,6aS,7R,8R,10aR,10bR,12aR,14R,15R)-15-(2-amino-2-ethylbutoxy)-8-[(1R)-1,2-dimethylpropyl]-14-[5-[(methylamino)carbonyl]-1H-1,2,4-triazol-1-yl]-1,6,6a,7,8,9,10,10a,10b,11,12,12a-dodecahydro-1,6a,8,10a-tetramethyl-4H-1,4a-propano-2H-phenanthro[1,2-c]pyran-7-carboxylic acid], the IC50 under setting [1] is 18.7 nM. In the case of `CC(C)[C@@H](C)[C@@]1(C)CC[C@]2(C)[C@H]3CC[C@@H]4[C@@]5(COC[C@@]4(C)[C@@H](OC[C@](C)(N)C(C)(C)C)[C@H](n4ncnc4-c4ccncc4)C5)C3=CC[C@@]2(C)[C@@H]1C(=O)O` [Example 173, (1S,4aR,6aS,7R,8R,10aR,10bR,12aR,14R,15R)-15-[[(2R)-2-amino-2,3,3-trimethylbutyl]oxy]-8-[(1R)-1,2-dimethylpropyl]-14-[5-(4-pyridinyl)-1H-1,2,4-triazol-1-yl]-1,6,6a,7,8,9,10,10a,10b,11,12,12a-dodecahydro-1,6a,8,10a-tetramethyl-4H-1,4a-propano-2H-phenanthro[1,2-c]pyran-7-carboxylic acid], the IC50 was 0.822 nM. Consider `CN[C@@](C)(CO[C@H]1[C@H](n2ncnc2-c2ccncc2)C[C@@]23COC[C@]1(C)[C@@H]2CC[C@H]1C3=CC[C@@]2(C)[C@H](C(=O)O)[C@@](C)([C@H](C)C(C)C)CC[C@]12C)C(C)(C)C` [Example 174, (1S,4aR,6aS,7R,8R,10aR,10bR,12aR,14R,15R)-8-[(1R)-1,2-dimethylpropyl]-14-[5-(4-pyridinyl)-1H-1,2,4-triazol-1-yl]-15-[[(2R)-2,3,3-trimethyl-2-(methylamino)butyl]oxy]-1,6,6a,7,8,9,10,10a,10b,11,12,12a-dodecahydro-1,6a,8,10a-tetramethyl-4H-1,4a-propano-2H-phenanthro[1,2-c]pyran-7-carboxylic acid], for which, under setting [1], the IC50 was 2.69 nM. As for `CNC1(CO[C@H]2[C@H](n3ncnc3-c3ccncc3)C[C@@]34COC[C@]2(C)[C@@H]3CC[C@H]2C4=CC[C@@]3(C)[C@H](C(=O)O)[C@@](C)([C@H](C)C(C)C)CC[C@]23C)CCOCC1` [Example 181, (1S,4aR,6aS,7R,8R,10aR,10bR,12aR,14R,15R)-8-[(1R)-1,2-dimethylpropyl]-14-[5-(4-pyridinyl)-1H-1,2,4-triazol-1-yl]-15-[[tetrahydro-4-(methylamino)-2H-pyran-4-yl]methoxy]-1,6,6a,7,8,9,10,10a,10b,11,12,12a-dodecahydro-1,6a,8,10a-tetramethyl-4H-1,4a-propano-2H-phenanthro[1,2-c]pyran-7-carboxylic acid], the IC50 under setting [1] is 10.8 nM.
